Drawing on patent US20180118721A1, “PYRIMIDINE DERIVATIVES” (Merck Patent GmbH, priority 2015, published 2018), this text covers IC50 and Kd for 27 compounds.

Where only a bound is given, the exact number is not on record here.

Assay [1] addresses T1, purified human recombinant MTH1 (human MTH1, residues 42-197) (Homo sapiens, UniProt P36639).
T1 construct: human MTH1, residues 42-197, Uniprot-ID: P36639, expressed in E. coli; made in house; host or cells: E. coli
The assay can be described thus: MTH1 enzymatic assay (luminescence-based, PPiLight). The class given is biochemical. The note with it: 6 μM 8-oxo-dGTP, Table 1, grouped. Here is the method:
The IC50 value was determined by a MTH1 enzymatic assay. The assay comprises the principal steps of incubating a mixture of MTH1, the compound in question at different concentrations and 8-oxo-2′-deoxyguanosine-5′-triphosphate (8-oxo-dGTP) in assay buffer. Nucleotide triphosphate hydrolysis by MTH1, i.e. decomposition of 8-oxo-2′-deoxyguanosine-5′-triphosphate, produces 8-oxo-2′-deoxyguanosine-5′-monophosphate (8-oxo-dGMP) and pyrophosphate (PPi). The amount of generated pyrophosphate (PPi) is then measured by a bioluminescent reaction. In detail: The MTH1 (human mutT homologue 1) enzymatic assay is performed as a luminescence-based 384-well assay. […] The assay buffer contains 100 mM Tris-acetate pH 7.5, 40 mM NaCl, 10 mM Mg(OAc)2, 0.005% Tween 20 and 2 mM dithiothreitol (DTT). […] Then, in a second step, the substrate 8-oxo-dGTP is added and the reaction mixture is incubated for 30 minutes at 22° C. The pharmacologically relevant assay volume is 5 PI. The final concentrations in the assay during incubation of the reaction mixture are 0.1-0.2 nM, typically 0.1 nM, MTH1 and 6 μM 8-oxo-dGTP. After incubation of the reaction mixture, the generation of pyrophosphate (PPi) as a result of nucleotide triphosphate (8-oxo-dGTP) hydrolysis by MTH1 is detected using the PPiLight inorganic pyrophosphate assay kit (Lonza) (third step). 2 to 5 μl, such as 3 to 5 μl, typically 3 or 4 μl, for instance 4 μl, of a 1:1 mixture of PPiLight converting reagent (AMP) and PPiLight detection reagent are added to the reaction mixture. In the presence of pyrophosphate, the detection reagent catalyzes the conversion of AMP to ATP. Luciferase then produces light from the newly formed ATP and luciferin. The amount of light produced is directly proportional to the amount of PPi in the sample. Following signal development for 1 h the plates are analysed in an EnVision (PerkinElmer) microplate reader using the ultra sensitive luminescence option. Data are processed employing the Genedata Screener software. In particular, IC50 values are determined in the usual manner (using the Hill Equation) by fitting a dose-response curve to the data points using nonlinear regression analysis.
Hill Equation: Y=S0+(Sinf−S0)/(1+(10^logIC50/10^c)^n); Y: luminescence signal (response), S0: activity level at zero concentration of test compound, Sinf=activity level at infinite concentration, Hill coefficient n=measure of the slope at IC50, c=concentration in logarithmic units corresponding to the values on the x-axis of the dose response curve plot

The target of assay [2] is T2, humanMTH1 (aminoacids 42 to 197) (Homo sapiens, UniProt P36639).
T2 construct: humanMTH1 (aminoacids 42 to 197); His tag at the N-terminus; purchased Abnova ab99390; host or cells: E. coli
The assay can be described thus: Binding affinities and kinetics on MTH1 surfaces by surface plasmon resonance (SPR). The note with it: SPR, Biacore4000, 25° C.; Table 1, grouped; read-out: KD IC50. Here is the method:
The SPR experiments were performed using a Biacore4000 instrument. […] HumanMTH1 was immobilized on Biacore CM5 chips at 25° C. and a flow rate of 10 μL/min using amine coupling at pH 5.5 and in presence of 1 μM MSC2567771B-1 according to Biacore's standard protocol. MTH1 was applied at a concentration of 10 μg/mL and depending on the duration of the injection time immobilization levels between 500 and 2,000 RU were obtained. Sample compounds were applied in form of titration series with a doubling of concentration at each subsequent injection. In general, 10 concentrations were injected covering a dilution range of 500 fold. Before and after each of these titration series the binding capability of the surface was controlled by the injection of the positive control S-Crizotinib at a fixed concentration of 2 μM. Kinetic titration experiments were performed at 25° C. with a flow rate of 30 μL/min, a sample contact time of 90 sec and a dissociation time of 420 sec in running buffer (20 mM Tris-HCl (Tris(hydroxymethyl)-aminomethane HCl) pH 7.40, 150 mM NaCl, 5 mM MgCl2, 1 mM DTT (dithiothreitol), 0.1 mM EGTA (ethylene glycol tetraacetic acid), 0.05% Tween 20) containing 2% DMSO (dimethyl sulfoxide). Buffer injections identical to the sample injections were executed at the beginning of the successive series for the purpose of double referencing. Solvent correction cycles (eight correction points, 1.4%-2.8% DMSO) were run at the same intervals. For surface conditioning ten start-up cycles (buffer injections) were run. Data points were collected at a sample rate of 10 Hz.
Data sets were processed and analyzed using the software Biacore4000 Evaluation, version 1.0. Solvent corrected and double-referenced association and dissociation phase data were fitted to a simple 1:1 interaction model with mass transport limitations.
Measured values are indicated as KD IC50 in the Table below.

In general, IC50 refers to the midpoint of a concentration-inhibition curve. A word on the Kd: it is the free concentration of one partner at which half of the binding sites on the other are occupied at equilibrium, for simple one-to-one binding.

Take `CNc1cc(N2CCC[C@](O)(c3ccccc3)C2)nc(N)n1` (single isomer, unassigned) [Example 91]: the half-maximal inhibitory concentration (IC50) in assay [1] was 1 to 100 nM. In assay [2], the dissociation constant (Kd) fell in the range of 1 to 100 nM.
Turning to `CNc1cc(N2CCCCC2Cc2ccccc2OC)nc(N)n1` (single isomer, unassigned) [Example 107], the IC50 in assay [1] lay within 1 to 100 nM. Moreover, the dissociation constant Kd in assay [2] was 1 to 100 nM.
`C[C@H]1C(c2ccccc2)CCN1c1cc(NC2CC2)nc(N)n1` (stereo in doubt) [Example 54, N4-Cyclopropyl-6-((2S,3R)-2-methyl-3-phenyl-pyrrolidin-1-yl)-pyrimidine-2,4-diamine]: the IC50 in assay [1] was 1 to 100 nM. Further, the dissociation constant Kd in assay [2] lay within 1 to 100 nM.
As for `C[C@H]1[C@H](c2ccccc2)CCN1c1cc(NC2CC2)nc(N)n1` (stereo in doubt) [Example 55, N4-Cyclopropyl-6-((2S,3S)-2-methyl-3-phenyl-pyrrolidin-1-yl)-pyrimidine-2,4-diamine], the IC50 in assay [1] fell in the range of 1 to 100 nM. The Kd in assay [2] was in the range of 1 to 100 nM.
For `C[C@@H]1[C@H](c2ccccc2)CCN1c1cc(NC2CC2)nc(N)n1` (stereo in doubt) [Example 56, N4-Cyclopropyl-6-((2R,3S)-2-methyl-3-phenyl-pyrrolidin-1-yl)-pyrimidine-2,4-diamine], in assay [1], the IC50 fell in the range of 1 to 100 nM. For the same compound, in assay [2], the Kd lay in the range of 1 to 100 nM.
Consider `C[C@@H]1C(c2ccccc2)CCN1c1cc(NC2CC2)nc(N)n1` (stereo in doubt) [Example 57, N4-Cyclopropyl-6-((2R,3R)-2-methyl-3-phenyl-pyrrolidin-1-yl)-pyrimidine-2,4-diamine], for which the IC50 in assay [1] was in the range of 1 to 100 nM. In assay [2], the dissociation constant Kd was in the range of 1 to 100 nM.
Consider `Nc1nc(NC2CC2)cc(N2CC[C@@H](O)C2)n1` [Example 29, (R)-1-(2-Amino-6-cyclopropylamino-pyrimidin-4-yl)-pyrrolidin-3-ol], for which, in assay [1], the IC50 was 1 to 100 nM. The Kd in assay [2] lay within 1 to 100 nM.
As to `Nc1nc(NC2CC2)cc(N2CCCC2c2ccccc2)n1` (stereo not drawn) [Example 30, N4-Cyclopropyl-6-(2-phenyl-pyrrolidin-1-yl)-pyrimidine-2,4-diamine], the 50% inhibitory concentration (IC50) in assay [1] is 1 to 100 nM. Moreover, the dissociation constant (Kd) in assay [2] lay in the range of 1 to 100 nM.
With `CC1CC2CCCCC2N1c1cc(NC2CC2)nc(N)n1` (stereo not drawn) [Example 31, N4-Cyclopropyl-6-(2-methyl-octahydro-indol-1-yl)-pyrimidine-2,4-diamine], in assay [1], the half-inhibitory concentration (IC50) lay within 1 to 100 nM. The Kd in assay [2] was 1 to 100 nM.
With `Nc1nc(NC2CC2)cc(N2CCC(O)(c3ccccc3)C2)n1` (stereo not drawn) [Example 32, 1-(2-Amino-6-cyclopropylamino-pyrimidin-4-yl)-3-phenyl-pyrrolidin-3-ol], in assay [1], the IC50 lay within 1 to 100 nM. Besides, in assay [2], the Kd was 1 to 100 nM.
Regarding `CC1CCCN1c1cc(NC2CC2)nc(N)n1` (stereo not drawn) [Example 33, N4-Cyclopropyl-6-(2-methyl-pyrrolidin-1-yl)-pyrimidine-2,4-diamine], the IC50 in assay [1] was 1 to 100 nM. Besides, the equilibrium dissociation constant (Kd) in assay [2] fell in the range of 1 to 100 nM.
Turning to `Nc1nc(NC2CC2)cc(N2CCCC2Cc2ccccc2)n1` (stereo not drawn) [Example 34, 6-(2-Benzyl-pyrrolidin-1-yl)-N4-cyclopropyl-pyrimidine-2,4-diamine], the IC50 in assay [1] was under 1 nM. Moreover, in assay [2], the Kd lay in the range of 1 to 100 nM.
As to `Nc1nc(NC2CC2)cc(N2CCc3ccccc32)n1` [Example 35, N4-Cyclopropyl-6-(2,3-dihydro-indol-1-yl)-pyrimidine-2,4-diamine], in assay [1], the IC50 was 1 to 100 nM. Also, the Kd in assay [2] fell in the range of 1 to 100 nM.
On to `CC1(O)CCN(c2cc(NC3CC3)nc(N)n2)C1` (stereo not drawn) [Example 43, 1-(2-Amino-6-cyclopropylamino-pyrimidin-4-yl)-3-methyl-pyrrolidin-3-ol], for which, in assay [1], the IC50 was in the range of 1 to 100 nM. The Kd in assay [2] was in the range of 1 to 100 nM.
Take `Nc1nc(NC2CC2)cc(N2CC[C@H](O)C2)n1` [Example 44, (S)-1-(2-Amino-6-cyclopropylamino-pyrimidin-4-yl)-pyrrolidin-3-ol]: the concentration for half-maximal inhibition (IC50) in assay [1] fell in the range of 1 to 100 nM. Further, the Kd in assay [2] lay within 1 to 100 nM.
Turning to `C[C@@H]1C[C@H](O)CN1c1cc(NC2CC2)nc(N)n1` [Example 45, (3S,5R)-1-(2-Amino-6-cyclopropylamino-pyrimidin-4-yl)-5-methyl-pyrrolidin-3-ol], the IC50 in assay [1] was in the range of 1 to 100 nM. In assay [2], the Kd lay within 1 to 100 nM.
Regarding `C[C@H]1C[C@@H](O)CN1c1cc(NC2CC2)nc(N)n1` [Example 46, (3R,5S)-1-(2-Amino-6-cyclopropylamino-pyrimidin-4-yl)-5-methyl-pyrrolidin-3-ol], the IC50 in assay [1] is under 1 nM. Besides, in assay [2], the Kd was under 1 nM.
Regarding `Nc1nc(NC2CC2)cc(N2CCC[C@@H]2Cc2ccccc2Cl)n1` [Example 47, 6-[(R)-2-(2-Chloro-benzyl)-pyrrolidin-1-yl]-N4-cyclopropyl-pyrimidine-2,4-diamine], the IC50 in assay [1] was under 1 nM. The Kd in assay [2] is under 1 nM.
In the case of `CNc1cc(N2CC(c3ccccc3)CC2=O)nc(N)n1` (stereo not drawn) [Example 96, 1-(2-Amino-6-methylamino-pyrimidin-4-yl)-4-phenyl-pyrrolidin-2-one], the half-maximal inhibitory concentration (IC50) in assay [1] is over 100 nM.
Regarding `CNc1cc(N2C(=O)CC[C@H]2CO)nc(N)n1` [Example 99, (S)-1-(2-Amino-6-methylamino-pyrimidin-4-yl)-5-hydroxymethyl-pyrrolidin-2-one], the 50% inhibitory concentration (IC50) in assay [1] is over 100 nM.
As for `CNc1cc(N2CCCC2C(C)C)nc(N)n1` (stereo not drawn) [Example 101, 6-(2-Isopropyl-pyrrolidin-1-yl)-N4-methyl-pyrimidine-2,4-diamine-formate], in assay [1], the IC50 was under 1 nM.
In the case of `CNc1cc(N2CCCC2C2CCCC2)nc(N)n1` (stereo not drawn) [Example 102, 6-(2-Cyclopentyl-pyrrolidin-1-yl)-N4-methyl-pyrimidine-2,4-diamine], in assay [1], the half-inhibitory concentration (IC50) was under 1 nM.
Consider `CNc1cc(N2CCC(c3ccccc3)C2=O)nc(N)n1` (stereo not drawn) [Example 103, 1-(2-Amino-6-methylamino-pyrimidin-4-yl)-3-phenyl-pyrrolidin-2-one], for which the IC50 in assay [1] fell in the range of 1 to 100 nM.
`Nc1nc(NC2CC2)cc(N2C(=O)CCC2c2ccc(Cl)cc2)n1` (stereo not drawn) [Example 104, 1-(2-Amino-6-cyclopropylamino-pyrimidin-4-yl)-5-(4-chloro-phenyl)-pyrrolidin-2-one]: in assay [1], the IC50 was over 100 nM.
On to `CNc1cc(N2CCCC2c2ccsc2)nc(N)n1` (stereo not drawn) [Example 111, N4-Methyl-6-(2-thiophen-3-yl-pyrrolidin-1-yl)-pyrimidine-2,4-diamine], for which, in assay [1], the IC50 is under 1 nM.
In the case of `Nc1nc(NC2CC2)cc(N2CCCC2C(=O)NCCc2ccc(S(=O)(=O)F)cc2)n1` (stereo not drawn) [Example 119, 4-(2-{[1-(2-Amino-6-cyclopropylamino-pyrimidin-4-yl)-pyrrolidine-2-carbonyl]-amino}-ethyl)-benzenesulfonyl fluoride], the half-maximal inhibitory concentration (IC50) in assay [1] fell in the range of 1 to 100 nM.
Regarding `Cc1ccc(CCNc2cc(N3CCC(F)(F)C3)nc(N)n2)cc1` [Example 145, 6-(3,3-Difluoro-pyrrolidin-1-yl)-N4-(2-p-tolyl-ethyl)-pyrimidine-2,4-diamine-formiate], the half-inhibitory concentration (IC50) in assay [1] is 1 to 100 nM.
